How the values were obtained:
eggs of Aleyrodidae = test: Effect on hatching of eggs of Aleyrodidae, leaf disc method; format: in vivo; settings: 10 ppm; for Hatching rate (%), Replicate 1 / Hatching rate (%), Replicate 2 / Hatching rate (%), Replicate 3 / Number of hatched larvae 5 days after insecticide delivery, Replicate 1 / Number of hatched larvae 5 days after insecticide delivery, Replicate 2 / Number of hatched larvae 5 days after insecticide delivery, Replicate 3: Aleyrodidae eggs; for Hatching rate (%), Replicate 1 / Hatching rate (%), Replicate 2 / Hatching rate (%), Replicate 3: 5 days after delivery; for Number of hatched larvae 5 days after insecticide delivery, Replicate 1 / Number of hatched larvae 5 days after insecticide delivery, Replicate 2 / Number of hatched larvae 5 days after insecticide delivery, Replicate 3: leaf disc
Protocol: • (1) Preparation of leaf discs containing eggs: 20 female adult mites of Tetranychus cinnabarinus were transferred onto leaf discs of Vicia faba with a diameter of 2.0 cm (with wetted filter paper at the bottom), then covered it with a lidded culture dish and cultivated under moisturizing conditions, the adult mites were removed within 36 hours and microscopic examination and counting were performed on leaf discs containing eggs. • (2) Investigation of egg population base: Before pesticide soaking, a microscopic examination was conducted on the egg basic number of each leaf disc, with 2 replicates set for each treatment. • (3) Pesticide soaking treatment: The leaf butterflies loaded with mite eggs were soaked in clear water and sulfite compounds for 10 seconds, respectively, then taken out and cultivated under moisturizing conditions. Each treatment should be repeated for no less than 3 times. • (4) Cultivation and observation: The […] were cultivated under normal conditions. Five days after insecticide delivery, the hatching status of mite eggs was investigated. • Note: The temperature and humidity conditions of the constant temperature and humidity incubator after the treatment should be controlled so as to avoid excessive temperature differences, which may cause generation and dripping of condensate water in the culture dish, resulting in abnormal death of eggs due to soaking in water; it is also necessary to ensure sufficient strong ambient light, without directing irradiating the leaves. • (5) Survey of Results: The experimental materials of each treatment group were regularly hydrated and moisturized, and the hatching of eggs was observed. On the 7th day after insecticide delivery, the number of hatched eggs for each treatment was recorded, and the survey of results was recorded in the original notebook. According to the experimental requirements and characteristics of agents, the survey time can be shortened or extended.
• 1) Surveying and recording the number of hatched eggs for each treatment. • 2) Photographing and recording whether there was any pesticide damage to the leaf discs of Vicia faba. • 3) Recording the developmental status of experimental mite eggs, behavior status of nymph mites, including abnormal phenomena such as delayed or stopped development of mite eggs, difficulty in breaking hull for nymph mites, or painful struggles after hatching, etc. • (6) Calculation method: Based on the survey data, the prevention and control effect of each treatment was calculated according to the following formula, and the calculation results were kept to two decimal places.
This test adopted the method in Test Example 1 of technical section, mainly used leaf disc method to explore the inhibitory effect on hatching of eggs of Aleyrodidae by compounds 1-(S,S), 1-(S,R), 1-(R,R), 1-(R,S), 1′-(S,S), 1′-(S,R), 1′-(R,R), 1′-(R,S), compound 1, compound 1′, S-10, R-10, S-10′, R-10′, compound 10, compound 10′, compound 19-(S,S), 19-(S,R), 19-(R,R), 19-(R,S), 19′-(S,S), 19′-(S,R), 19′-(R,R), 19′-(R,S), compound 19, and compound 19′. The concentration of all compounds was 10 ppm.

[1] = tested on: eggs of Harmonia axyridis; test: Effect on hatching of eggs of Harmonia axyridis, egg card immersion; format: in vivo; settings: 100 ppm; for Number of hatched larvae 4 days after insecticide delivery, Replicate 1 / Number of hatched larvae 4 days after insecticide delivery, Replicate 2 / Number of hatched larvae 4 days after insecticide delivery, Replicate 3: Harmonia axyridis egg cards, immersed 30 seconds; for Hatching rate (%), Replicate 1 / Hatching rate (%), Replicate 2 / Hatching rate (%), Replicate 3: Harmonia axyridis eggs, 4 days after delivery
Description: The eggs of Harmonia axyridis cards (with approximately 20 eggs per card) were purchased from Henan Jiyuan Baiyun Industry Co., Ltd. in Henan Province. The number of eggs on the egg cards was counted as the basic number before insecticide delivery, and 5 cards were used as one treatment, with 3 replicates per treatment. After immersing the egg cards in a 100 ppm insecticide solution for 30 seconds, they were taken out and air dried, then cultivated under moisturizing conditions, and the […] were cultivated at 27° C. 4 days after insecticide delivery, the hatching status of eggs of Harmonia axyridis was investigated, and the prevention and control effect was calculated according to the following formula. [formula] [formula]

## CCC(COc1ccc(Cl)cc1Cl)OS(=O)OCCF [19-(S,S)]
Eggs of Aleyrodidae; listed as 19-(S, S)
  Hatching rate (%), Replicate 1: 12.36%
  Hatching rate (%), Replicate 2: 12.03%
  Hatching rate (%), Replicate 3: 12.28%
  Number of hatched larvae 5 days after insecticide delivery, Replicate 1: 11
  Number of hatched larvae 5 days after insecticide delivery, Replicate 2: 16
  Number of hatched larvae 5 days after insecticide delivery, Replicate 3: 14
[1]; listed as 19-(S, S)
  Number of hatched larvae 4 days after insecticide delivery, Replicate 1: 13
  Number of hatched larvae 4 days after insecticide delivery, Replicate 2: 15
  Number of hatched larvae 4 days after insecticide delivery, Replicate 3: 16
  Hatching rate (%), Replicate 1: 13.68%
  Hatching rate (%), Replicate 2: 14.56%
  Hatching rate (%), Replicate 3: 15.38%

## CC[C@@H](COS(=O)OCCF)Oc1ccc(Cl)cc1Cl (stereo partly drawn) [19′-(S,R)]
Eggs of Aleyrodidae; listed as 19′-(S, R)
  Hatching rate (%), Replicate 1: 10.53%
  Hatching rate (%), Replicate 2: 10.24%
  Hatching rate (%), Replicate 3: 10.20%
  Number of hatched larvae 5 days after insecticide delivery, Replicate 1: 10
  Number of hatched larvae 5 days after insecticide delivery, Replicate 2: 13
  Number of hatched larvae 5 days after insecticide delivery, Replicate 3: 10
[1]; listed as 19′-(S, R)
  Number of hatched larvae 4 days after insecticide delivery, Replicate 1: 10
  Number of hatched larvae 4 days after insecticide delivery, Replicate 2: 10
  Number of hatched larvae 4 days after insecticide delivery, Replicate 3: 11
  Hatching rate (%), Replicate 1: 10.42%
  Hatching rate (%), Replicate 2: 9.35%
  Hatching rate (%), Replicate 3: 9.82%

## CC(COc1ccc(Cl)cc1Cl)OS(=O)OCCF [1′-(R,R)]
Eggs of Aleyrodidae; listed as 1′-(R, R)
  Hatching rate (%), Replicate 1: 13.95%
  Hatching rate (%), Replicate 2: 15.38%
  Hatching rate (%), Replicate 3: 13.21%
  Number of hatched larvae 5 days after insecticide delivery, Replicate 1: 18
  Number of hatched larvae 5 days after insecticide delivery, Replicate 2: 14
  Number of hatched larvae 5 days after insecticide delivery, Replicate 3: 14
[1]; listed as 1′-(R, R)
  Number of hatched larvae 4 days after insecticide delivery, Replicate 1: 15
  Number of hatched larvae 4 days after insecticide delivery, Replicate 2: 16
  Number of hatched larvae 4 days after insecticide delivery, Replicate 3: 18
  Hatching rate (%), Replicate 1: 17.05%
  Hatching rate (%), Replicate 2: 16.84%
  Hatching rate (%), Replicate 3: 16.22%

## CC(COc1ccc(Cl)cc1Cl)OS(=O)OCCF (centres unmarked) [Compound 1′]
Eggs of Aleyrodidae
  inhibitory activity on the hatching of eggs of Aleyrodidae (in words): strong inhibitory activities
  Hatching rate (%), Replicate 1: 1.87%
  Hatching rate (%), Replicate 2: 0.00%
  Hatching rate (%), Replicate 3: 1.14%
  Number of hatched larvae 5 days after insecticide delivery, Replicate 1: 2
  Number of hatched larvae 5 days after insecticide delivery, Replicate 2: 0
  Number of hatched larvae 5 days after insecticide delivery, Replicate 3: 1
[1]
  inhibitory activity on the hatching of eggs of Harmonia axyridis (in words): strong inhibitory activities
  Number of hatched larvae 4 days after insecticide delivery, Replicate 1: 6
  Number of hatched larvae 4 days after insecticide delivery, Replicate 2: 4
  Number of hatched larvae 4 days after insecticide delivery, Replicate 3: 7
  Hatching rate (%), Replicate 1: 5.88%
  Hatching rate (%), Replicate 2: 4.17%
  Hatching rate (%), Replicate 3: 6.60%

## CC(C)(COc1ccc(Cl)cc1Cl)OS(=O)OCCF (centres unmarked) [Compound R-10]
Eggs of Aleyrodidae
  Hatching rate (%), Replicate 1: 9.79%
  Hatching rate (%), Replicate 2: 9.42%
  Hatching rate (%), Replicate 3: 9.92%
  Number of hatched larvae 5 days after insecticide delivery, Replicate 1: 14
  Number of hatched larvae 5 days after insecticide delivery, Replicate 2: 13
  Number of hatched larvae 5 days after insecticide delivery, Replicate 3: 12
[1]
  Number of hatched larvae 4 days after insecticide delivery, Replicate 1: 15
  Number of hatched larvae 4 days after insecticide delivery, Replicate 2: 10
  Number of hatched larvae 4 days after insecticide delivery, Replicate 3: 13
  Hatching rate (%), Replicate 1: 12.00%
  Hatching rate (%), Replicate 2: 11.90%
  Hatching rate (%), Replicate 3: 12.87%

## CC[C@H](COS(=O)OCCF)Oc1ccc(Cl)cc1Cl (stereo partly drawn) [19′-(R,S)]
Eggs of Aleyrodidae
  Hatching rate (%), Replicate 1: 10.32%
  Hatching rate (%), Replicate 2: 9.40%
  Hatching rate (%), Replicate 3: 11.49%
  Number of hatched larvae 5 days after insecticide delivery, Replicate 1: 13
  Number of hatched larvae 5 days after insecticide delivery, Replicate 2: 11
  Number of hatched larvae 5 days after insecticide delivery, Replicate 3: 10
[1]
  Number of hatched larvae 4 days after insecticide delivery, Replicate 1: 11
  Number of hatched larvae 4 days after insecticide delivery, Replicate 2: 10
  Number of hatched larvae 4 days after insecticide delivery, Replicate 3: 9
  Hatching rate (%), Replicate 1: 10.28%
  Hatching rate (%), Replicate 2: 10.53%
  Hatching rate (%), Replicate 3: 9.78%

## C[C@@H](COS(=O)OCCF)Oc1ccc(Cl)cc1Cl (stereo partly drawn) [1-(S,R)]
Eggs of Aleyrodidae; listed as 1-(S, R)
  Hatching rate (%), Replicate 1: 9.65%
  Hatching rate (%), Replicate 2: 9.38%
  Hatching rate (%), Replicate 3: 10.48%
  Number of hatched larvae 5 days after insecticide delivery, Replicate 1: 11
  Number of hatched larvae 5 days after insecticide delivery, Replicate 2: 12
  Number of hatched larvae 5 days after insecticide delivery, Replicate 3: 11
[1]; listed as 1-(S, R)
  Number of hatched larvae 4 days after insecticide delivery, Replicate 1: 13
  Number of hatched larvae 4 days after insecticide delivery, Replicate 2: 14
  Number of hatched larvae 4 days after insecticide delivery, Replicate 3: 14
  Hatching rate (%), Replicate 1: 12.04%
  Hatching rate (%), Replicate 2: 14.14%
  Hatching rate (%), Replicate 3: 13.73%

Reference: patent publication US20260184675A1, “CHIRAL ISOMERIC SULFITE COMPOUND AND APPLICATION THEREOF” (Chengdu Hanova BioSciences Co., Ltd, priority 2024, published 2026)
